# In patent publication US20070092442A1, “F-18-fluorinated phosphonium cation imaging agents and methods of synthesis” (priority 2005, published 2007):
# What was measured:
# C6 cells [1] = assay: C6 cell uptake of phosphonium cations determined by MALDI-TOF-MS; assay type: cell-based, rat; conditions: 5 μM; for rank of uptake in C6 cells among the compounds tested: 25° C.
# Description: A rat glioma C6 cell line was grown in Dulbecco's modified Eagle medium (DMEM, Invitrogen Life Technologies, Carlsbad, Calif.) high glucose (containing KCl 5.3 mmol/L and NaCl 110.34 mmol/L) plus 10% fetal bovine serum (FBS), and 1% penicillin-streptomycin at 37° C. in 5% CO2/95% air. After trypsinization, cells were washed with 0.01 M phosphate-buffered saline (PBS, pH=7.4) twice and suspended at 10×10^6 cells /mL in low K^+ Hepes buffer (135 mM NaCl/5 mM KCl/1.8 mM CaCl2/0.8 mM MgSO4/50 mM Hepes [4-(-2-hydroxyethyl)-1-piperazineethanesulfonic acid]/5.5 mM dextrose, pH 7.4). 50 μL (0.5×10^6) of C6 cells were incubated with 10 μL 100 μM stock phosphonium salts solution ([…], the structures of these phosphonium cations are shown in FIG. 1) and 140 μL Hepes buffer from 10 to 90 min at room temperature. The cells were centrifuged (250×g) for three minutes and washed twice with cold PBS buffer at specified times. Cell pellets were then lysed with 150 μL cold spectral grade water, following by freezing in dry ice. Right before the MALDI-TOF-MS analysis, the frozen cell solution was thawed and centrifuged at 12000×g for 5 min. 90 μL cell lysate and 10 μL 10 μM internal standard MeTPP were mixed together, and 1 μL solution was subjected to MALDI-TOF-MS analysis. Samples were prepared and analyzed in triplicate.
# C6 cells [2] = assay: Mitochondrial membrane potential (MMP) dependent uptake of FTPP in C6 cells (CCCP, valinomycin, high K+ Hepes buffer); assay type: cell-based, rat
# Description: The extent of MMP and cell membrane potential-dependent cellular uptake of FTPP was further assessed using the C6 cells treated with CCCP, valinomycin, and high K^+ Hepes buffer (5 mM NaCl/135 mM KCl/1.8 mM CaCl2/0.8 mM MgSO4/50 mM Hepes/5.5 mM dextrose, pH 7.4). Carbonylcyanide-m-chlorophenylhydrazone (CCCP), a known protonphore that selectively abolishes the MMP,^26 was dissolved in dimethyl sulfoxide (DMSO) and diluted to desired concentration with low K^+ Hepes buffer. K^+-ionophore valinomycin was dissolved in ethanol and also diluted with low K^+ buffer. Final concentrations of ethanol and DMSO were below 0.1%. Varying concentrations of CCCP and valinomycin were added to the 0.5×10^6 cells in low K^+ Hepes buffer 30 min prior to the start of the experiment. After 1 hr of incubation with 5 μM FTPP, the eppendorf vials were centrifuged, cell lysate were prepared as described above, and the cell uptakes of FTPP were determined using MALDI-TOF-MS. Five sets of 0.5×10^6 cells were also suspended in high K^+ Hepes buffer for 60 min, then exposed to 5 μM FTPP for 10-90 min in high K^+ Hepes buffer. Cell uptake of FTPP was measured by MALDI-TOF-MS. The viability and the integrity of the cells after treatment with inhibitors and high K^+ buffer were examined using Trypan blue.
# [3] = MicroPET imaging, biodistribution and pharmacokinetic in normal nude mice; assay type: in vivo, mouse; conditions: for heart uptake / liver uptake: tail vein, microPET ROI
# Description: PET imaging of normal nude mice was performed on a microPET R4 rodent model scanner (Concorde Microsystems Inc, Knoxville, Tenn.). The mice were injected with about 10-20 μCi of [^18F]FTPP via the tail vein. At 30 min, 1 hr, 2 hr, and 4 hr post injection, the mice were anesthetized with 2% isoflurane and placed in the prone position and near the center of the filed of view of microPET. The 10-min static scans were obtained, and the images were reconstructed by a two-dimensional ordered subsets expectation maximum (OSEM) algorithm. Regions of interest (ROIs) were then drawn over the […] on decay-corrected whole-body coronal images. The counts per pixel per minute were obtained from the ROI and converted to counts per milliliter per minute by using a calibration constant. By assuming a tissue density of 1 g/mL, the ROIs were converted to counts/g/min. An image ROI-derived percentage ID per gram of tissue (% ID/g) was then determined by dividing counts per gram per minute with injected dose (ID).
smiles,measurement,setting,value
"[Br-].c1ccc([P+](c2ccccc2)(c2ccccc2)c2ccccc2)cc1 [TPP, tetraphenylphosphonium bromide, reference compound]",rank of uptake in C6 cells among the compounds tested,C6 cells [1],highest uptake
"Fc1ccc([P+](c2ccccc2)(c2ccccc2)c2ccccc2)cc1 [FTPP, 4-Fluorophenyltriphenyl phosphonium]",FTPP uptake (normalized) in presence of valinomycin,"C6 cells [2]; 10 μM valinomycin, 5 μM FTPP, 1 hr, low K+ Hepes buffer",about 72.8±3.6%
same,FTPP uptake (normalized) in presence of CCCP,"C6 cells [2]; 50 μM CCCP, 5 μM FTPP, 1 hr, low K+ Hepes buffer",about 27.3±2.3%
same,effect of CCCP or valinomycin on uptake,"C6 cells [2]; CCCP 0.1-50 μM, valinomycin 0.1-10 μM, low K+ Hepes buffer",inhibited by CCCP or valinomycin in dose-dependent manners
same,decrease in uptake on depolarization of the plasma membrane (high K+ vs low K+ buffer),"C6 cells [2]; high K+ Hepes buffer, 90 min exposure time, 5 μM FTPP",3.5 fold
same,rank of uptake in C6 cells among the compounds tested,C6 cells [1],2nd place
same,uptake in C6 cells as percentage of the TPP uptake,"C6 cells [1]; glioma C6 cells in vitro, MALDI-TOF-MS",80%
"[18F]c1ccc([P+](c2ccccc2)(c2ccccc2)c2ccccc2)cc1 [[^18F]FTPP, (4-[^18F]fluorophenyl)triphenylphosphonium]",heart uptake,[3]; 30 minutes pi,5.59±0.93 % ID/g
same,liver uptake,[3]; 30 minutes pi,7.39±0.36 % ID/g
same,heart uptake,[3]; 4 h pi,3.89±0.29 % ID/g
same,liver uptake,[3]; 4 h pi,2.79±0.59 % ID/g
same,localization in microPET images,"[3]; female nude mouse, 15 μCi",clearly localized in the heart
same,route of clearance,"[3]; female nude mouse, 15 μCi",mainly cleared out through hepatobiliary system
